Test results reported in patent US20250090510A1, “eIF4G1-eIF1 INHIBITORS AND USE THEREOF” (YEDA RESEARCH AND DEVELOPMENT CO. LTD., priority 2022, published 2025).

Molecular target: T1, eIF4E-eIF4G1 complex (Homo sapiens, UniProt Q04637)
T1 construct: co-immunoprecipitation of endogenous eIF4G1 in HEK293T cells expressing HA-eIF1 or HA-eIF4E was performed; endogenous in cells; host or cells: HEK293T (eIF4G1 endogenous; HA-eIF4E transfected)
Experiment: Co-immunoprecipitation of endogenous eIF4G1 with HA-eIF4E
Format: cell-based
Settings: HEK293T; i14G1-10 20 μM, i14G1-12 10 μM; 4 h
Procedure: FIGS. 2A-C: The effect of i14G1-10 and i14G1-12 on eIF1-eIF4G1 and eIF4E-eIF4G1 complexes. (2A-B) HA-eIF1 and HA-eIF4E were each transfected into HEK293T cells and 48 h after transfection cells were treated with DMSO or i14G1-10 (2A) or i14G1-12 (2B) for 4 h, followed by immunoprecipitation of HA-eIF1 or HA-eIF4E using anti-HA-agarose beads. Western blot was run to check co-immunoprecipitation of endogenous eIF4G1 with HA-eIF1 or HA-eIF4E. The graphs represent the co-immunoprecipitation of eIF4G1 with HA-eIF1 (right) or HA-eIF4E (left). Co—IP data shown as mean±SEM of 4-7 independent experiments. The asterisks denote statistically significant difference compared to DMSO, according to Student's t-tests (one-tailed, paired). *p<0.05. (2C) HEK293T cells were treated with DMSO, i14G1-10, or i14G1-12 for 4 h, followed by cell lysis. Respective cell lysates were incubated with cap analog (γ-Aminohexyl-m7GTP) beads for 2 h to precipitate bound eIF4E. Western blot was performed to check co-precipitation of eIF4G1 along with eIF4E on the cap-analog beads. The graph represents the binding fraction of eIF4G1 and eIF4E to the cap-analog beads (mean±SEM) with DMSO (black), i14G1-10 (blue), and i14G1-12 (red), n=6. The asterisks denote statistically significant difference compared to DMSO, according to Student's t-tests (one-tailed, paired). *p<0.05; **p<0.01.
Co-immunoprecipitation. HEK293T cells were transfected with 5 μg of HA-eIF1 or HA-eIF4E plasmids along with 10 ng GFP plasmid to check for transfection efficiency using Jetprime reagent as per manufacturer's protocol. After 48 h, HA-eIF1 and HA-eIF4E expressing HEK293T cells were incubated with DMSO, i14G1-10 (20 μM), and […] (10 μM). 4 h later, cells were lysed using IP buffer (20 mM Tris pH8, 125 mM NaCl, 10% glycerol, 50 mM NaF, 1 mM […], 0.5% NP-40, and 0.2 mM EDTA) supplemented with fresh protease inhibitor cocktail (1:100) and PMSF 200 μM (1:100). Protein extract was taken for immunoprecipitation using either monoclonal anti-HA-agarose antibody (Sigma) or control IgG antibody in IP buffer, at 4° C. for 2 hours. […]

T1 sequence (Q04637 whole entry): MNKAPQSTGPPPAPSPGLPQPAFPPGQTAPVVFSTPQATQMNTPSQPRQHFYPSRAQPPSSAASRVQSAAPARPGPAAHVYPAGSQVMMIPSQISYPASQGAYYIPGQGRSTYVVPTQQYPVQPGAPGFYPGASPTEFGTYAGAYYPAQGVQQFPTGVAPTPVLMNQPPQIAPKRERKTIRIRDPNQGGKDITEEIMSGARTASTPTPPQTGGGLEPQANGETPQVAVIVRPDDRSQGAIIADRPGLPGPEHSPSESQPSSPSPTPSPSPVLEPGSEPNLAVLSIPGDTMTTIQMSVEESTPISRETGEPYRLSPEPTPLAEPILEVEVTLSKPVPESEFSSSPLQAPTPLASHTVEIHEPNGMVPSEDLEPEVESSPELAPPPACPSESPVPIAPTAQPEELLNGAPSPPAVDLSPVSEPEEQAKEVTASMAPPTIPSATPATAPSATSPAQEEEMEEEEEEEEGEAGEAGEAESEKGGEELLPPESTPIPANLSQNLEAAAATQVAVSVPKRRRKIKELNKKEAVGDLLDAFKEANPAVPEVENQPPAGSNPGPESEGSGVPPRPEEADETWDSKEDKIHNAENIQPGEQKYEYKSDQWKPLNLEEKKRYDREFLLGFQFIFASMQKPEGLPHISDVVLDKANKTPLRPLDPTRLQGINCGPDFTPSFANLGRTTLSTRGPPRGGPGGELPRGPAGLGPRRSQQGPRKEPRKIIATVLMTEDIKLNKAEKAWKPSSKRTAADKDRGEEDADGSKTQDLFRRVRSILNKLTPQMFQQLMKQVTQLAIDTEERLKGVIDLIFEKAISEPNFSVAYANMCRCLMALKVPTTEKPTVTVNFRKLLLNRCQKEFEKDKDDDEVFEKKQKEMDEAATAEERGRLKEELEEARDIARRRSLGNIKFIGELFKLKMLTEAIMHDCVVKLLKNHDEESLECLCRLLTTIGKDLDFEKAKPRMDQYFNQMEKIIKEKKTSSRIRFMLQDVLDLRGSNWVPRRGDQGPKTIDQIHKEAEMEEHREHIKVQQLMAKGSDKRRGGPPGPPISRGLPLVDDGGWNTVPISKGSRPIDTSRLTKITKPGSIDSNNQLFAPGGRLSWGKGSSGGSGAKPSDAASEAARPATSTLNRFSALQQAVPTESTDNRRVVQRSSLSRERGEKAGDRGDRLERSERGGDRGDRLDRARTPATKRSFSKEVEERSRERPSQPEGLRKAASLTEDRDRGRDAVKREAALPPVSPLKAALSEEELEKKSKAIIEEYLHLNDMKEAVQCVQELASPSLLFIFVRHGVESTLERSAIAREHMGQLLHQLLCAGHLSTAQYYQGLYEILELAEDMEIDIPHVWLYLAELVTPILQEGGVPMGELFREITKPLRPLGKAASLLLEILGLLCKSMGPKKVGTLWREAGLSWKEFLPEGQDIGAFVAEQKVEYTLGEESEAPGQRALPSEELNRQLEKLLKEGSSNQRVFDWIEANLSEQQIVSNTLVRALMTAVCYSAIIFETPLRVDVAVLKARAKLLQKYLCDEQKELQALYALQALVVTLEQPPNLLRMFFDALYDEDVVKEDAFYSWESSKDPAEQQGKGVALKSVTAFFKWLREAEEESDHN
T1 sequence (P06730 whole entry partner): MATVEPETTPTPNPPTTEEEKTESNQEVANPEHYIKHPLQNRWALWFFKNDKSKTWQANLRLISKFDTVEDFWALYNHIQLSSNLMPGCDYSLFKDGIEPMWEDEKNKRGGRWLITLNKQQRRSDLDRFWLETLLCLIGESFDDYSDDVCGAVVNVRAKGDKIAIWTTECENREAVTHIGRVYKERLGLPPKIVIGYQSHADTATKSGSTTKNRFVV

Structure (SMILES)	enhancement of eIF4G1 binding to HA-eIF4E
Cn1ccnc1S/C(=C/C=C(C#N)C#N)c1ccc(Cl)cc1 [i14G1-12]	not significant
O=C(/C=C/Sc1ccc(C(F)(F)F)cn1)c1ccccc1 [i14G1-10]	dramatic enhancement
